We go through 3 compounds from US12173088B2, “Anti-microbial peptides” (priority 2018, dated 2024).

Where two headings read alike, the source gives them in different places. Peptide text beside a SMILES is read from it.

Data set [1] can be described thus: In vivo toxicity after i.p. injection. Details: species or system mice. The conditions noted are these: for Animal death: 10, 20, and 30 mg/kg i.p., five-day experiment; for Mobility: higher peptide doses. The procedure: Because DFT561 had crossed multiple in vitro barriers (Table 5), its in vivo toxicity and efficacy was tested. A well-established neutropenic mouse model was used, which is often utilized to evaluate the efficacy of antibiotics and peptide mimics (Ambrose, et al. (2012) Clin. Infect. Dis., 54(3):S220-8; Radzishevsky, et al. (2007) Nat. Biotechnol., 25:657-659). In this model, the effect of immune cells on bacterial killing is minimized via two injections of cyclophosphamide before infection (FIG. 5). To evaluate the safety of the peptide in vivo, the toxicity of DFT561 injected intraperitoneally (i.p.) was compared at […] per mouse. […] In addition, alanine transaminase normally resides in serum and tissues but can be released after liver injury. Differences in a quantitative alanine transaminase assay of liver homogenates from mice treated at 0, 10, and 20 mg/kg was not observed.
Neutropenic mice are widely accepted for systemic efficacy evaluation of antibiotics (Zhao, et al. (2016) Bioorg. Med. Chem. 24:6390-6400; Craig, et al. (1991) J. Antimicrob. Chemother., 27:29-40). This model enables better evaluation of compound potency by minimizing the bacterial clearance effect of the immune system. Using this model, the efficacy of horine against S. aureus USA300 and verine against K. pneumonia E406-17 was tested. C57BL/6 mice were made neutropenic by two injections of cyclophosphamide intraperitoneally (i.p.). The acute toxicity of horine and verine was investigated by i.p. injecting them into mice at 10, 20, and 30 mg/kg body weight.

The nature of data set [2]: Stability in mouse plasma and peritoneal fluid. In kind it is in vitro ADME. The conditions noted are these: murine peritoneal fluids or plasma for 3 hours. The method, then: Stability of horine and verine was evaluated in the presence of mouse plasma and peritoneal fluid using SDS-PAGE electrophoresis. […] […] The gels were stained using the Coomassie Brilliant Blue G-250 dye.

For data set [3], the system named is human red blood cells (hRBCs). Put plainly: Hemolytic assay. In kind it is cell-based. The gist of the method:
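Washed hRBCs (2% v/v) exposed to peptide for 1 h at 37 °C, then centrifuged and hemoglobin in supernatant read at 545 nm. Lysis normalized to Triton X-100 (2% or 1%; 100%) and PBS (0%); HL50 is the peptide concentration giving 50% lysis, and CSI is HL50/MIC.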

Data set [4] is described as follows: Toxicity to cells. In kind it is cell-based. The conditions noted are these: human, MRC9 human lung fibroblasts; read-out: LC50 (the source's name).
Data set [5] can be described thus: Toxicity to cells. Type of data set: cell-based. The conditions noted are these: splenocytes (mouse spleen), Spleenocytes, read-out: LC50 (the source's name).
A short description of data set [6]: Cell viability assay (MTS). Type of data set: cell-based. Particulars: human, read-out: LC50. The procedure: Peptides assessed for potential cytotoxicity using HepaRG (human hepatic progenitor cell line) and HEK-293 (human embryonic kidney) cells. Briefly, cells were seeded at a density of 1×10^4 per well in a tissue culture 96-well plate. For HepaRG cells, the working medium is prepared by adding the HepaRG Supplement to 100 ml/500 ml of Williams' Medium E and 1 ml/5 ml of GlutaMAX-1. For HEK-293 cells, DMEM supplemented with 10% fetal bovine serum (FBS) for both cell lines, and incubated at 37° C. in a 5% CO2 atmosphere for 24 hours. Culture medium was aspirated and replaced with fresh serum free media. Cells were exposed to different concentration of horine and verine for 1 hour at 37° C. in a 5% CO2 atmosphere. Post-incubation, the cells were washed and incubated with 100 μL of HepaRG specific/DMEM media containing 20 μL of MTS reagent for 2 hours at 37° C. Absorbance was read at 492 nm using a ChroMate® microplate reader (GMI).

Setting [7] is: HEK-293 (human embryonic kidney) cells, HEK293.
[8] abbreviates: HepaRG (human hepatic progenitor cell line).

For the compound `CC(C)C[C@H](NC(=O)[C@H](CC(C)C)NC(=O)[C@H](CCCCN)NC(=O)[C@H](CC(C)C)NC(=O)CNC(=O)[C@H](CC(C)C)NC(=O)[C@H](CO)NC(=O)[C@H](CC(C)C)NC(=O)[C@H](CC(C)C)NC(=O)[C@H](CC(C)C)NC(=O)[C@H](CCCCN)NC(=O)[C@H](CC(C)C)NC(=O)CN)C(N)=O` [DFT561, GLKLLLSLGLKLL] (H-GLKLLLSLGLKLL-NH2; N-terminus and C-terminus assumed), the “Differences in alanine transaminase assay of liver homogenates” value in data set [1] (0, 10, and 20 mg/kg) is reported as “not observed”. Moreover, the “Toxicity (conclusion)” value in data set [1] (5 mg/kg) is listed as “not toxic”. Moreover, the Behaviour of mice entry in data set [1] (10 mg/kg i.p.) was “behaved normal”; in data set [1] (20 or 40 mg/kg i.p.), “reduced activity for 30 minutes”. The Weight losses entry in data set [1] (10, 20, 40 mg/kg i.p.) was “statistically insignificant”.
`CC(C)C[C@H](NC(=O)[C@H](Cc1c[nH]c2ccccc12)NC(=O)[C@H](Cc1c[nH]c2ccccc12)NC(=O)[C@@H](N)Cc1c[nH]c2ccccc12)C(=O)N[C@@H](CCCNC(=N)N)C(=O)N[C@@H](CCCNC(=N)N)C(=O)N[C@@H](CCCNC(=N)N)C(=O)N[C@@H](Cc1c[nH]c2ccccc12)C(N)=O` [Horine, WWWLRRRW] (H-WWWLRRRW-NH2; N-terminus and C-terminus assumed): in data set [2], the Stability after incubation result was “stable and active”. For the same compound, the HL50 in data set [3] amounted to 150 µM. Besides, the CC50 in the data set “Toxicity to cells [4]” is more than 35 µM; in “Toxicity to cells [5]”, more than 50 µM. Besides, the Animal death result in data set [1] was “no animal death”. Also, in data set [1], the Mobility entry is listed as “initial short-term reduced mobility”. Moreover, the CC50 at 1 hour in data set [6] (setting [7]) is more than 100 µM; in data set [6] (setting [8]) it was more than 80 µM.
In the case of `CC(C)[C@H](NC(=O)[C@H](Cc1c[nH]c2ccccc12)NC(=O)[C@H](Cc1c[nH]c2ccccc12)NC(=O)[C@H](Cc1c[nH]c2ccccc12)NC(=O)[C@H](Cc1c[nH]c2ccccc12)NC(=O)[C@H](CCCNC(=N)N)NC(=O)[C@H](CCCNC(=N)N)NC(=O)[C@@H](N)CCCNC(=N)N)C(N)=O` [Verine, RRRWWWWV] (H-RRRWWWWV-NH2; N-terminus and C-terminus assumed), the Stability after incubation result in data set [2] is “stable and active”. For the same compound, in data set [3] (Table 12), the HL50 is 130^2 μM. Also, the CC50 in the data set “Toxicity to cells [4]” is more than 25 µM; in the data set “Toxicity to cells [5]”, more than 12.5 µM. In addition, the Animal death result in data set [1] was “no animal death”. Also, the Mobility result in data set [1] is given as “initial short-term reduced mobility”. Further, the CC50 at 1 hour in data set [6] (setting [7]) and in data set [6] (setting [8]) was more than 80 µM in each case.
